Data published in paper PMC7814726, “Phytochemical constituents and biological activities of Salvia macrosiphon Boiss” (BMC Chemistry, 2021).
Where two headings read alike, the source gives them in different places.

Columns and labels:
[1] = system: Human Dermal Fibroblast (HDF); test: MTT cytotoxicity assay, normal cells; type: cell-based; conditions: read-out: IC50 HDF
Description: (§1) Two different human breast cancer cell lines (MCF-7 and MDA-MB-231), lung cancer cell line (A-549) and normal cell (Human Dermal Fibroblast) were purchased from Pasture Institute of Iran, Tehran, Iran. The medium of RPMI 1640 (PAA, Germany) including sodium bicarbonate and N-hydroxyethylpiperazone-n-2-ethanesulfonic Acid (HEPES, Biosera, England) was used to maintain the cell lines. The medium was enriched with fetal bovine serum (FBS; Gibco, USA) and antibiotics. Then, incubated in air atmosphere enriched 5% CO2 at 37 °C. The cytotoxic activity of all fractions and compounds were examined by the MTT (3-[4,5-dimethylthiazole-2-yl]-2,5-diphenyltetrazolium bromide) (Sigma-Aldrich, USA) assay.
(§2) Cancer is the second leading cause of death and responsible for approximately 13% of mortality in the world. […] One of the efficient approaches to new drugs is screening herbal extracts. In the present study, S. macrosiphon was selected for the possible cytotoxic activity. For this purpose, different fractions of aerial parts of the plants including n-hexane, chloroform, ethyl acetate, and water-soluble fractions were screened towards lung cancer cell line (A549) and breast cancer cell lines (MCF-7 and MDA-MB-231) as well as normal cell, human dermal fibroblasts (HDF), using MTT assay comparing with etoposide as a standard drug (Table 2). The inhibitory concentration, 50% (IC50) values (µg /mL) were calculated by linear regression analysis, expressed in mean ± SD.

[2] = system: MCF-7 human breast cancer cell line; test: MTT cytotoxicity assay, MCF-7; type: cell-based; conditions: for IC50: Homo sapiens; for selectivity index MCF-7: IC50 HDF / IC50 MCF-7
Description: as §1, §2

[3] = system: A549 lung cancer cell line; test: MTT cytotoxicity assay, A549; type: cell-based, human; conditions: for IC50: Homo sapiens; for selectivity index A549: IC50 HDF / IC50 A549
Description: as §1, §2

[4] = system: MDA-MB-231 human breast cancer cell line; test: MTT cytotoxicity assay, MDA-MB-231; type: cell-based; conditions: for IC50: Homo sapiens; for selectivity index MDA-MB-231: IC50 HDF / IC50 MDA-MB-231
Description: as §1, §2

[5] = design: method as in earlier work; conditions: earlier report; cited from earlier work
[6] = MDA-MB-231, read-out: IC50 MDA-MB-231
[7] = MTT assay, normal cells, isolated compounds
[8] = MCF7, MTT assay, isolated compounds, read-out: IC50 MCF-7
[9] = A549, MTT assay, isolated compounds, read-out: IC50 A549
[10] = MDA-MB-231, MTT assay, isolated compounds, read-out: IC50 MDA-MB-231

Row | Structure (SMILES) | IC50 [1] | IC50 ([2]; MCF7, read-out: IC50 MCF-7) | selectivity index MCF-7 [2] | IC50 ([3]; A549, read-out: IC50 A549) | selectivity index A549 [3] | IC50 [4, 6] | selectivity index MDA-MB-231 [4] | IC50 [1, 7] | IC50 [2, 8] | IC50 [3, 9] | IC50 [4, 10] | melting point | cytotoxicity [5] | IC50 ([1]; MTT assay, normal cells, mean ± SD, fractions of S. macrosiphon) | IC50 ([2]; MCF7, MTT assay, mean ± SD, fractions of S. macrosiphon, read-out: IC50 MCF-7) | IC50 ([3]; A549, MTT assay, mean ± SD, fractions of S. macrosiphon, read-out: IC50 A549) | IC50 ([4]; MDA-MB-231, MTT assay, mean ± SD, fractions of S. macrosiphon, read-out: IC50 MDA-MB-231)
1 | C=C[C@]1(C)CCC2[C@@]3(C)CCCC(C)(C)C3CC[C@@]2(C)O1 (stereo partly drawn) [Compound 1, 13-epi manoyl oxide] | 338 ± 9.2 µM | 15.8 ± 0.35 µM | 21.4 | 19.4 ± 1.96 µM | 17.4 | 22.2 ± 1.72 µM | 15.2 | – | – | – | – | – | – | – | – | – | –
2 | C=C[C@]1(C)CCC2[C@@]3(C)CCCC(C)(C)C3[C@@H](O)C[C@@]2(C)O1 (stereo partly drawn) [Compound 2, 6α-hydroxy-13-epimanoyl oxide] | – | – | – | – | – | – | – | > 653 µM | 98 ± 11.3 µM | 170 ± 11.6 µM | 120 ± 5.09 µM | 95 to 98 °C | – | – | – | – | –
3 | COc1ccc(-c2cc(=O)c3c(O)cc(OC)cc3o2)cc1 [Compound 3, 5-hydroxy-7,4'-dimethoxyflavone] | – | – | – | – | – | – | – | > 971 µM | 428 ± 23.1 µM | 469 ± 22.8 µM | 470 ± 23.1 µM | – | – | – | – | – | –
4 | CC[C@H](CC[C@@H](C)[C@H]1CC[C@H]2[C@@H]3CC=C4C[C@@H](O)CC[C@]4(C)[C@H]3CC[C@]12C)C(C)C [Compound 4, β-sitosterol] | – | > 100 µM | – | > 100 µM | – | > 100 µM | – | – | – | – | – | – | no activity | – | – | – | –
5 | COc1cc([C@@H]2c3cc4c(cc3[C@@H](O[C@@H]3O[C@@H]5CO[C@@H](C)O[C@H]5[C@H](O)[C@H]3O)[C@H]3COC(=O)[C@H]23)OCO4)cc(OC)c1O [Etoposide, reference compound] | – | – | 4.2 | – | 5.6 | – | 4.6 | 158 ± 2.04 µM | 37.5 ± 0.66 µM | 28.2 ± 1.32 µM | 34.5 ± 0.36 µM | – | – | 92.7 ± 1.2 µg/mL | 22.1 ± 0.39 µg/mL | 16.6 ± 0.78 µg/mL | 20.3 ± 0.21 µg/mL
